Source: ChEMBL document CHEMBL1201862, “PubChem BioAssay data set” (2004)
Active and inactive are the calls of the source.

Columns and labels:
[1] = inhibitors of intracellular T. cruzi replication, confirmation, NIH3T3 host cells, beta-gal luminescence (AID 2044); assay type: functional, cell-based;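 further: intracellular parasites grown in NIH/3T3 mouse fibroblasts as host cells; luminescent beta-galactosidase reporter signal from transgenic T. cruzi replicating inside host cells; inhibitors lower the luminescence signal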
[2] = cytotoxicity toward NIH3T3 fibroblasts, dose response, counter-screen, cell-based, ATP luminescence, mouse fibroblasts (AID 2010); assay type: functional;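 further: cells exposed to compound for about 90 hours before reading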
Coagulation factor XII = biological target: T1, Coagulation factor XII (Homo sapiens, UniProt P00748); test: FXIIa inhibitor potency, concentration-response, biochemical (AID 716); assay type: functional
T1 sequence (P00748 whole entry): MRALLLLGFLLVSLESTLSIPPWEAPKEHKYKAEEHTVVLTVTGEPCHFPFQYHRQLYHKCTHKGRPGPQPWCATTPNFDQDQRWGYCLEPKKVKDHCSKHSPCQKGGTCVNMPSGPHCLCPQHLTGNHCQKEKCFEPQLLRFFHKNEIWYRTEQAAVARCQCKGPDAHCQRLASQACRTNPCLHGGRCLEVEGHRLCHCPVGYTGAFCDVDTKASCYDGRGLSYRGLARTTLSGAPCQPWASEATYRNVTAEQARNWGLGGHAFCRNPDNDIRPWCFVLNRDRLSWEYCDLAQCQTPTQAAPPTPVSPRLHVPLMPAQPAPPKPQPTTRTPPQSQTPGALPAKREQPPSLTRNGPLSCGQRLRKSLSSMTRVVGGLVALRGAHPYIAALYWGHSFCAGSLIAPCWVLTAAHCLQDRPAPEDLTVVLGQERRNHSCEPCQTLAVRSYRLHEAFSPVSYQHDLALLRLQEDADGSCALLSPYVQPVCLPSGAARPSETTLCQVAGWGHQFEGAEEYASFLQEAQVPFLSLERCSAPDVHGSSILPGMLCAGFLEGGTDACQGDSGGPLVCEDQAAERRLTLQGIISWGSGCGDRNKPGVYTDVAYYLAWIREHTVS

Trypsin = Trypsin (Sus scrofa, UniProt P00761); test: porcine trypsin inhibitors, dose response, selectivity assay for Rce1 protease inhibitor project, biochemical, quenched peptide fluorescence, cherry-pick (AID 488789)
CAAX prenyl protease 2 = biological target: T2, CAAX prenyl protease 2 (Saccharomyces cerevisiae S288c, UniProt Q03530); assay type: biochemical
T2 sequence (Q03530 whole entry): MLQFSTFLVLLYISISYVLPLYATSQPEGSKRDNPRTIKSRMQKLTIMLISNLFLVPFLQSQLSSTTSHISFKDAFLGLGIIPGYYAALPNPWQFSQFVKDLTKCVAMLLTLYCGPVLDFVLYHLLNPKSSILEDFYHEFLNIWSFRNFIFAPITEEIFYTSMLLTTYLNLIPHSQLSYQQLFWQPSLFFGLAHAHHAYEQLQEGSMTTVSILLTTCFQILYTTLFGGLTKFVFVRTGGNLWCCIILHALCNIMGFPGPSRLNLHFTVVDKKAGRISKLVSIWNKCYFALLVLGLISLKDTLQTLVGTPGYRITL

[3] = biological target: DNA dC->dU-editing enzyme APOBEC-3A (Homo sapiens, UniProt P31941); test: Dose Response confirmation of small molecule APOBEC3A DNA Deaminase Inhibitors via a fluorescence-based single-stranded DNA deaminase assay. [Related pubchem assays (depositor defined):AID493011, AID493024]; assay type: functional
[4] = biological target: DNA dC->dU-editing enzyme APOBEC-3G (Homo sapiens, UniProt Q9HC16); assay type: functional;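 further: Dose-response counterscreen measuring inhibition of APOBEC3G DNA deaminase activity, run while confirming APOBEC3A inhibitors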
[5] = biological target: Sphingosine 1-phosphate receptor 4 (Homo sapiens, UniProt O95977); test: Late-stage fluorescence dose response cell-based assay to identify agonists of the Sphingosine 1-Phosphate Receptor 4 (S1P4): purchased compounds EC50. [Related pubchem assays (depositor defined):AID1509, AID1523, AID1563, AID1686, AID1701, AID1801]; assay type: functional
[6] = biological target: T3, Tyrosine-protein phosphatase non-receptor type 7 (Homo sapiens, UniProt P35236); test: SAR analysis of chemical inhibitors of HePTP using a Fluorescent assay - Set 2. [Related pubchem assays (depositor defined):AID1059, AID1077, AID1661, AID2085, AID521]; assay type: functional
T3 sequence (P35236 whole entry): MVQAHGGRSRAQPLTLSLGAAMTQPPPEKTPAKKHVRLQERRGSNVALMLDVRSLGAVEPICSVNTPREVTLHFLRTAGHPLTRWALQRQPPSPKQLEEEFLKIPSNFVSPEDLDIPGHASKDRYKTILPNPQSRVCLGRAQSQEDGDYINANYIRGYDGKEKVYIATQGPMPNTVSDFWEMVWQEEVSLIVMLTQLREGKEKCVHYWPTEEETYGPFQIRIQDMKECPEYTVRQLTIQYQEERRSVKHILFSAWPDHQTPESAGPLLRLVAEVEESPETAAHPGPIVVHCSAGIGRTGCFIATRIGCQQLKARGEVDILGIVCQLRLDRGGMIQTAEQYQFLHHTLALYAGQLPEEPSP

[7] = biological target: Dual specificity protein phosphatase 3 (Homo sapiens, UniProt P51452); test: SAR VHR1 Fluorescent Assay for In Vitro dose response studies Set 2. [Related pubchem assays (depositor defined):AID1654, AID1661, AID1878]; assay type: functional
Troponin, cardiac muscle = Troponin, cardiac muscle (Homo sapiens, UniProt P19429+P45379+P63316); test: Fluorescence-based biochemical high throughput dose response assay for activators of the calcium sensitivity of cardiac Regulated Thin Filaments (RTF). [Related pubchem assays (depositor defined):AID493008, AID493018, AID504382, AID504383]; assay type: protein-complex assay
[8] = biological target: T4, Short transient receptor potential channel 4 (Mus musculus, UniProt Q9QUQ5); test: mouse TRPC4 channel activators, dose response, cell-based, HEK293 TRPC4/mu-opioid, Fluo-4 calcium (AID 434937); assay type: functional
T4 sequence (Q9QUQ5 whole entry): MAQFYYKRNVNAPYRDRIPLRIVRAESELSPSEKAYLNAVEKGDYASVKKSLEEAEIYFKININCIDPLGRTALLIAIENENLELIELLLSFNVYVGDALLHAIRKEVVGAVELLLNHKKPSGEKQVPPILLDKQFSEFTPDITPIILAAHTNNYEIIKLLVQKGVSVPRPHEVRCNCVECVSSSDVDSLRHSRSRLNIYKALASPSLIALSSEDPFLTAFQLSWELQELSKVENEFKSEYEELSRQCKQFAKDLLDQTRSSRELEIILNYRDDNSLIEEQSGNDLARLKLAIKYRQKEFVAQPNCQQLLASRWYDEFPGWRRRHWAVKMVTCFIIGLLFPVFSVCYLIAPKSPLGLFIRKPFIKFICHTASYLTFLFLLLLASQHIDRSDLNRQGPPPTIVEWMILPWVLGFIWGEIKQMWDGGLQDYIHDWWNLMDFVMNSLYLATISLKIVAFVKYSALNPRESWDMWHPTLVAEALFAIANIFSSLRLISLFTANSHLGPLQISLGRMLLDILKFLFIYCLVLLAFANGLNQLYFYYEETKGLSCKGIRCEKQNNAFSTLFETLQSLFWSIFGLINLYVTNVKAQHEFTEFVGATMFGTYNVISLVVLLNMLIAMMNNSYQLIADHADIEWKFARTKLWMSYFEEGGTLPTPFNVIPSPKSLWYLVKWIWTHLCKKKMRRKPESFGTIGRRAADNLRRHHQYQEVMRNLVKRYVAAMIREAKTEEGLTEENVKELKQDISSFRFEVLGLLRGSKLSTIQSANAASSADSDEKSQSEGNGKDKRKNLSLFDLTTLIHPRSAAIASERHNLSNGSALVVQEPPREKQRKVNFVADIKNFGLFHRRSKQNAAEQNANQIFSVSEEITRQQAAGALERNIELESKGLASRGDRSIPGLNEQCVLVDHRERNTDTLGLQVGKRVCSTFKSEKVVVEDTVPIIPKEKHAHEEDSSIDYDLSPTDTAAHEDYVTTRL

[9] = biological target: T5, High affinity choline transporter 1 (Homo sapiens, UniProt Q9GZV3); test: CHT inhibitors, dose response, cell-based, 5-point CRC, membrane potential dye (AID 504840); assay type: functional
T5 sequence (Q9GZV3 whole entry): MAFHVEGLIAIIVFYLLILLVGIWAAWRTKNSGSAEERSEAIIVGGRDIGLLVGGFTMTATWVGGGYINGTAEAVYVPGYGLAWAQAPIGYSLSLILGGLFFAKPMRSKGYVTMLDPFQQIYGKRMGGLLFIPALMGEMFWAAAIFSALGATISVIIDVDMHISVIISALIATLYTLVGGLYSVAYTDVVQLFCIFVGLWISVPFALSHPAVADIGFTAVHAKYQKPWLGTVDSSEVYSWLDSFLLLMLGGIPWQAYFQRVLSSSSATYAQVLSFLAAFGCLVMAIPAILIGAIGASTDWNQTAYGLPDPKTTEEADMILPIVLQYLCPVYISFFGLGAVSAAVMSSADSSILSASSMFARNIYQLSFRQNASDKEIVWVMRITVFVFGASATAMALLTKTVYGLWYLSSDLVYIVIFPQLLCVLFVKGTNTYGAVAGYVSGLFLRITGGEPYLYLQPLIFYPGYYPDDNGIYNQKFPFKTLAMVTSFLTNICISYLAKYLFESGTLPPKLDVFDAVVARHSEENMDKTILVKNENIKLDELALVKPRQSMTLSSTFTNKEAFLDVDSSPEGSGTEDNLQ

[10] = biological target: T5, High affinity choline transporter 1; test: CHT inhibitors, dose response, cell-based, 10-point CRC, membrane potential dye (AID 588401); assay type: functional;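 further: membrane potential dye fluorescence of choline-evoked depolarization via CHT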

Trypsin, sequence (P00761 whole entry): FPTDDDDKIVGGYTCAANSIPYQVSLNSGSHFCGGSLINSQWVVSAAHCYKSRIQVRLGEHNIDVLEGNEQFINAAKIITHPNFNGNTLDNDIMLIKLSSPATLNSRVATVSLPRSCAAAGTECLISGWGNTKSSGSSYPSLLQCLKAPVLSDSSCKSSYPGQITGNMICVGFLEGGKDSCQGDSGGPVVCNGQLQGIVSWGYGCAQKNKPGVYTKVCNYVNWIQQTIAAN
Dual specificity protein phosphatase 3, sequence (P51452 whole entry): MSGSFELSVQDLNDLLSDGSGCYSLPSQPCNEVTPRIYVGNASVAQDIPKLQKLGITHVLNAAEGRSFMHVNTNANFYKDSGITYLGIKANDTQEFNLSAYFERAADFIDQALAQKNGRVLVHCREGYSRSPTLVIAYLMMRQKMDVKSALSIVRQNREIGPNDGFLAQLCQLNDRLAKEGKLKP
Sphingosine 1-phosphate receptor 4, sequence (O95977 whole entry): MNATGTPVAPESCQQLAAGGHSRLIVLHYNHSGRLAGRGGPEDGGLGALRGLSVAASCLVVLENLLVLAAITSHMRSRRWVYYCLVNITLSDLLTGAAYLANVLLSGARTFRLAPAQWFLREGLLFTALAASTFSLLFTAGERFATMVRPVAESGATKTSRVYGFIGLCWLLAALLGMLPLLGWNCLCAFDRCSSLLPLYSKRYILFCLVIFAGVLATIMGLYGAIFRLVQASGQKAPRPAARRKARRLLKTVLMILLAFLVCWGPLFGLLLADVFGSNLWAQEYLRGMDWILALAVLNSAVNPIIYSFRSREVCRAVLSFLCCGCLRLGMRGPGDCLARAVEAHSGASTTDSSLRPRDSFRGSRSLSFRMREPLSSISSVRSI
DNA dC->dU-editing enzyme APOBEC-3A, sequence (P31941 whole entry): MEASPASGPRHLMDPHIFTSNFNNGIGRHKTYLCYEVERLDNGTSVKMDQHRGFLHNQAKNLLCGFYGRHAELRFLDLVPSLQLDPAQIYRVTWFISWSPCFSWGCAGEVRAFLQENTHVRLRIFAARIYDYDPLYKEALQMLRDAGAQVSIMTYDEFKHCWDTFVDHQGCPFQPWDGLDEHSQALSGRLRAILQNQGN
DNA dC->dU-editing enzyme APOBEC-3G, sequence (Q9HC16 whole entry): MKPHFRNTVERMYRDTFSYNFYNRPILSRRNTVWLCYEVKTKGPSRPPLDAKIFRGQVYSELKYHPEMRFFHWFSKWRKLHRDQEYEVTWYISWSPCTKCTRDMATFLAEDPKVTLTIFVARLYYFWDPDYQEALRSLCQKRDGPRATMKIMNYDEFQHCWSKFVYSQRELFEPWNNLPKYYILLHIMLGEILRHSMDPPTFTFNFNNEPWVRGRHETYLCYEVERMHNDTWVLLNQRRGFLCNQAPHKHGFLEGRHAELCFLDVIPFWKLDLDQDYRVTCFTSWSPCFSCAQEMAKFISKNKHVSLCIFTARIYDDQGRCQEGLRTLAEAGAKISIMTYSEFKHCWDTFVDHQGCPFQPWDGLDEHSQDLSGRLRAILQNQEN

COc1ccc(C)cc1NC(=O)CCC(=O)Nc1ccc2nc(N3CCN(C)CC3)cc(C)c2c1
EC50 [1]: 635 nM (active) | EC50 [2]: 8.73 µM (active) | IC50 (Coagulation factor XII): > 50 µM (inactive) | AC50 (Trypsin): 19.7 µM (active) | AC50 (CAAX prenyl protease 2): 16.4 µM (active)

CC(Oc1ccc(Br)cc1)C(=O)Nc1cc(Cl)ccc1N1CCN(C)CC1 (centres undefined)
IC50 [3]: 3.15 µM (active) | IC50 [4]: 4.26 µM (active)

Cc1nn(Cc2ccccc2)c(Cl)c1C(=O)OC(C)C(=O)Nc1nc(-c2ccccc2)cs1 (centres undefined)
EC50 [5]: > 50 µM (inactive)

COc1cc(C(=S)NCc2ccc(F)cc2)ccc1O
IC50 [6]: > 100 µM (inactive) | IC50 [7]: 99.5 µM (inactive)

CC(=O)OCC[N+](C)(C)C [ACETYLCHOLINE CHLORIDE]
EC50 (Troponin, cardiac muscle): > 71.4 µM (inactive) | EC50 [8]: 421 nM (active) | IC50 [9]: 6.26 µM (active) | IC50 [10]: 566 nM (active)
